Measured values reported in PubChem BioAssay (NCI).
Values joined by “and” are separate entries in the source; they are usually repeats but may differ in a detail not shown here. Equal entries are not always repeated.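 Results reflect a 48-hour exposure of cells in 96-well plates to compound at five concentrations. The concentration for 50% growth inhibition is given as GI50. TGI marks complete inhibition of growth.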

Legend:
Test in all cases: DTP human tumour cell line panel, 48 h
NCI-H23 lung = system: NCI-H23 lung
TK-10 renal = system: TK-10 renal
DU-145 prostate = system: DU-145 prostate
SK-MEL-2 melanoma = system: SK-MEL-2 melanoma
IGROV1 ovarian = system: IGROV1 ovarian
SN12C renal = system: SN12C renal
SK-OV-3 ovarian = system: SK-OV-3 ovarian
U251 CNS = system: U251 CNS
BT-549 breast = system: BT-549 breast
HOP-92 NSCLC = system: HOP-92 NSCLC

O=S(=O)(NC1=NCCN1C(=S)SN1CCn2c1nsc2=S)c1cccc2ccccc12
GI50 (NCI-H23 lung): 20.9 µM
TGI (NCI-H23 lung): 80.9 µM
GI50 (TK-10 renal): 21.4 µM
TGI (TK-10 renal): 64.8 µM
GI50 (DU-145 prostate): 19.3 µM
TGI (DU-145 prostate): 49.2 µM
GI50 (SK-MEL-2 melanoma): 17.5 µM
TGI (SK-MEL-2 melanoma): 44.1 µM
GI50 (IGROV1 ovarian): 10 µM
TGI (IGROV1 ovarian): 32.6 µM
GI50 (SN12C renal): 17.2 µM
TGI (SN12C renal): 37.6 µM
GI50 (SK-OV-3 ovarian): 31.1 µM
TGI (SK-OV-3 ovarian): 91.5 µM
GI50 (U251 CNS): 20.6 µM
TGI (U251 CNS): 49.9 µM

CCc1ccc(NC(=O)NC(=O)c2ccccc2[N+](=O)[O-])cc1Oc1ncc(Cl)cn1
TGI (NCI-H23 lung): > 100 µM
TGI (TK-10 renal): > 100 µM
TGI (DU-145 prostate): > 100 µM
TGI (IGROV1 ovarian): > 100 µM
TGI (SN12C renal): > 100 µM
TGI (SK-OV-3 ovarian): > 100 µM
TGI (BT-549 breast): 35.7 µM
TGI (HOP-92 NSCLC): > 100 µM
TGI (U251 CNS): > 100 µM

CCOC(=O)C(Cc1c[nH]c2c(N(CCO)CCO)cccc12)(NC(C)=O)C(=O)OCC
GI50 (NCI-H23 lung): > 1000 µM
TGI (NCI-H23 lung): > 1000 µM
GI50 (TK-10 renal): > 1000 µM
TGI (TK-10 renal): > 1000 µM
GI50 (DU-145 prostate): 499 µM
TGI (DU-145 prostate): > 1000 µM
GI50 (IGROV1 ovarian): 643 µM
TGI (IGROV1 ovarian): > 1000 µM
GI50 (SN12C renal): 141 µM
TGI (SN12C renal): 290 µM
GI50 (SK-OV-3 ovarian): > 1000 µM
TGI (SK-OV-3 ovarian): > 1000 µM
GI50 (BT-549 breast): 564 µM
TGI (BT-549 breast): > 1000 µM
GI50 (HOP-92 NSCLC): > 1000 µM
TGI (HOP-92 NSCLC): > 1000 µM
GI50 (U251 CNS): 183 µM
TGI (U251 CNS): 420 µM

C=C(CC(NC(=O)c1ccc(C(CC)Cc2cnc3nc(N)nc(N)c3n2)cc1)C(=O)O)C(=O)O (stereo not given)
TGI (NCI-H23 lung): > 100 µM
TGI (TK-10 renal): > 100 µM
TGI (IGROV1 ovarian): > 100 µM
GI50 (SN12C renal): 0.0205 µM
TGI (SN12C renal): > 100 µM
GI50 (SK-OV-3 ovarian): 0.0669 µM
TGI (SK-OV-3 ovarian): > 100 µM
TGI (U251 CNS): > 100 µM

CC1=Nc2c(ccc3c2C(=O)c2ccccc2C3=O)NC(c2cccc3c2CCC3)C1 (stereo not given)
TGI (NCI-H23 lung): > 100 µM
TGI (TK-10 renal): > 100 µM
TGI (SK-MEL-2 melanoma): > 100 µM
TGI (IGROV1 ovarian): > 100 µM
TGI (SN12C renal): > 100 µM
TGI (SK-OV-3 ovarian): > 100 µM
TGI (HOP-92 NSCLC): > 100 µM
TGI (U251 CNS): > 100 µM

O=c1c2cc(F)ccc2sc2c(N3CCNCC3)nc3ccc(F)cc3c12
GI50 (NCI-H23 lung): 1.67 µM
TGI (NCI-H23 lung): 3.17 µM
GI50 (TK-10 renal): 1.94 µM
TGI (TK-10 renal): 3.47 µM
GI50 (DU-145 prostate): 1.68 µM
TGI (DU-145 prostate): 3.09 µM
GI50 (SK-MEL-2 melanoma): 1.84 µM
TGI (SK-MEL-2 melanoma): 3.53 µM
GI50 (IGROV1 ovarian): 1.34 µM
TGI (IGROV1 ovarian): 2.74 µM
GI50 (SN12C renal): 1.58 µM
TGI (SN12C renal): 3.05 µM
GI50 (BT-549 breast): 10.1 µM
TGI (BT-549 breast): 24.1 µM
GI50 (HOP-92 NSCLC): 1.18 µM
TGI (HOP-92 NSCLC): 2.52 µM

COC12CCC(=O)C=C1c1ccccc1N2C(C)=O (stereo not given)
TGI (NCI-H23 lung): > 100 µM
TGI (SK-MEL-2 melanoma): > 100 µM
TGI (IGROV1 ovarian): > 100 µM
TGI (SN12C renal): > 100 µM
TGI (SK-OV-3 ovarian): > 100 µM
TGI (U251 CNS): > 100 µM

CCNC(=O)COc1ccc(Br)cc1Br
TGI (NCI-H23 lung): > 100 µM
TGI (SK-MEL-2 melanoma): > 100 µM
TGI (IGROV1 ovarian): > 100 µM
TGI (SN12C renal): > 100 µM
TGI (SK-OV-3 ovarian): > 100 µM
TGI (HOP-92 NSCLC): > 100 µM
TGI (U251 CNS): > 100 µM

N#Cc1ccccc1C(Cl)(Cl)c1cnccn1
TGI (NCI-H23 lung): > 100 µM
TGI (TK-10 renal): > 100 µM
TGI (SK-MEL-2 melanoma): > 100 µM
TGI (IGROV1 ovarian): > 100 µM
TGI (SN12C renal): > 100 µM
TGI (SK-OV-3 ovarian): > 100 µM
TGI (HOP-92 NSCLC): 65.4 µM
TGI (U251 CNS): > 100 µM

CC(Oc1ccc2c(-c3ccccc3)cc(=O)oc2c1)C(=O)O (stereo not given)
TGI (NCI-H23 lung): > 100 µM
TGI (TK-10 renal): > 100 µM
TGI (IGROV1 ovarian): > 100 µM
TGI (SN12C renal): > 100 µM
TGI (SK-OV-3 ovarian): > 100 µM
TGI (HOP-92 NSCLC): > 100 µM
TGI (U251 CNS): > 100 µM

O=C(Cc1nc2ccccc2c(=O)n1-c1ccccc1Cl)c1ccncc1
TGI (NCI-H23 lung): > 100 µM
TGI (TK-10 renal): > 100 µM
TGI (SK-MEL-2 melanoma): > 100 µM
TGI (IGROV1 ovarian): > 100 µM
TGI (SN12C renal): > 100 µM
TGI (SK-OV-3 ovarian): > 100 µM
TGI (HOP-92 NSCLC): > 100 µM
TGI (U251 CNS): > 100 µM

O=C(CCC(=O)Nc1ccc(Cl)c(Cl)c1)CC(=O)c1ccc(Br)cc1
TGI (NCI-H23 lung): > 100 µM
TGI (TK-10 renal): > 100 µM
TGI (SK-MEL-2 melanoma): > 100 µM
TGI (IGROV1 ovarian): > 100 µM
TGI (SN12C renal): > 100 µM
TGI (SK-OV-3 ovarian): > 100 µM
TGI (HOP-92 NSCLC): > 100 µM
TGI (U251 CNS): > 100 µM

C#Cc1cccc(N2C(=O)c3c(c(-c4ccccc4)c(-c4ccc(Cc5ccc(-c6c(-c7ccccc7)c7c(c(-c8ccccc8)c6-c6ccccc6)C(=O)N(c6cccc(C#C)c6)C7=O)cc5)cc4)c(-c4ccccc4)c3-c3ccccc3)C2=O)c1
TGI (NCI-H23 lung): > 100 µM
TGI (TK-10 renal): 53.3 µM
TGI (SK-MEL-2 melanoma): > 100 µM
TGI (IGROV1 ovarian): 45.2 µM
TGI (SN12C renal): > 100 µM
TGI (HOP-92 NSCLC): 29 µM
TGI (U251 CNS): > 100 µM

CC[n+]1oc(C(=O)c2ccc(Cl)cc2)c(-c2ccccc2)c1-c1ccccc1.[Cl][Fe]([Cl])([Cl])[Cl]
GI50 (NCI-H23 lung): 45.7 µM
TGI (NCI-H23 lung): > 100 µM
GI50 (TK-10 renal): 33.4 µM
TGI (TK-10 renal): > 100 µM
GI50 (DU-145 prostate): 18.9 µM
TGI (DU-145 prostate): 75 µM
GI50 (SK-MEL-2 melanoma): 30.8 µM
TGI (SK-MEL-2 melanoma): 85.9 µM
GI50 (SN12C renal): 83.5 µM
TGI (SN12C renal): > 100 µM
GI50 (SK-OV-3 ovarian): 46.7 µM
TGI (SK-OV-3 ovarian): > 100 µM
GI50 (HOP-92 NSCLC): 27.1 µM
TGI (HOP-92 NSCLC): 62.9 µM
GI50 (U251 CNS): 6.63 µM
TGI (U251 CNS): > 100 µM

COc1ccc(NC(=O)/C(=C/c2ccccc2)C(C)=O)cc1
TGI (TK-10 renal): 37.4 µM
TGI (SK-MEL-2 melanoma): 28.6 µM
TGI (IGROV1 ovarian): 38.6 µM
TGI (SN12C renal): 31.4 µM
TGI (SK-OV-3 ovarian): 95.1 µM
TGI (HOP-92 NSCLC): 29.6 µM
TGI (U251 CNS): 29.4 µM

COc1ccc(S(=O)(=O)N2CCN(C(=O)c3ccc(-c4ccccc4)cc3)CC2C(=O)NO)cc1 (stereo not given)
TGI (NCI-H23 lung): 12.5 µM and > 100 µM
GI50 (TK-10 renal): 1.83 µM and 12.1 µM
TGI (TK-10 renal): 7.33 µM and 58.5 µM
GI50 (SN12C renal): 2.16 µM and 16.2 µM
GI50 (SK-OV-3 ovarian): > 100 µM
TGI (SK-OV-3 ovarian): > 100 µM
GI50 (BT-549 breast): 2.48 µM
TGI (BT-549 breast): 6.69 µM
GI50 (HOP-92 NSCLC): > 100 µM
TGI (HOP-92 NSCLC): > 100 µM
TGI (U251 CNS): 12.5 µM and > 100 µM

CC1/C=C/[C@@]2(C)CCC(C(C)(C)O)C2C(O)C[C@](C)(O)/C=C/C1 (stereo not given in full)
TGI (NCI-H23 lung): > 100 µM
TGI (TK-10 renal): > 100 µM
TGI (SK-MEL-2 melanoma): > 100 µM
TGI (IGROV1 ovarian): > 100 µM
TGI (SN12C renal): > 100 µM
TGI (SK-OV-3 ovarian): > 100 µM
TGI (HOP-92 NSCLC): > 100 µM
TGI (U251 CNS): > 100 µM

O=C1c2ccccc2-[n+]2ccc3c([nH]c4ccccc43)c21
TGI (NCI-H23 lung): 2.76 µM
TGI (TK-10 renal): 2.72 µM
TGI (DU-145 prostate): 2.54 µM
TGI (SK-MEL-2 melanoma): 0.427 µM
TGI (IGROV1 ovarian): 0.671 µM
TGI (SN12C renal): 0.687 µM
TGI (SK-OV-3 ovarian): 6.27 µM
TGI (BT-549 breast): 4.92 µM
TGI (U251 CNS): 1.47 µM

Cc1ccc(NC(=O)CCc2nc(N)nc(N)c2-c2ccccc2)cc1C
TGI (NCI-H23 lung): > 100 µM
TGI (TK-10 renal): > 100 µM
TGI (SK-MEL-2 melanoma): > 100 µM
TGI (IGROV1 ovarian): > 100 µM
TGI (SN12C renal): > 100 µM
TGI (SK-OV-3 ovarian): > 100 µM
TGI (HOP-92 NSCLC): > 100 µM
TGI (U251 CNS): > 100 µM

CCC1CC2C(=O)N(c3ccccc3)C(=O)C2c2[nH]c3ccccc3c21 (stereo not given)
TGI (NCI-H23 lung): > 100 µM
TGI (TK-10 renal): 68.3 µM
TGI (IGROV1 ovarian): 30.6 µM
TGI (SN12C renal): 71.1 µM
TGI (SK-OV-3 ovarian): 29.3 µM
TGI (U251 CNS): > 100 µM

Cc1nn[n-]n1.N.N.N.N.N.[Cl-].[Co+3]
GI50 (NCI-H23 lung): > 100 µM
TGI (NCI-H23 lung): > 100 µM
GI50 (TK-10 renal): > 100 µM
TGI (TK-10 renal): > 100 µM
GI50 (SK-MEL-2 melanoma): > 100 µM
TGI (SK-MEL-2 melanoma): > 100 µM
GI50 (IGROV1 ovarian): > 100 µM
TGI (IGROV1 ovarian): > 100 µM
GI50 (SN12C renal): > 100 µM
TGI (SN12C renal): > 100 µM
GI50 (SK-OV-3 ovarian): > 100 µM
TGI (SK-OV-3 ovarian): > 100 µM
GI50 (HOP-92 NSCLC): > 100 µM
TGI (HOP-92 NSCLC): > 100 µM
GI50 (U251 CNS): > 100 µM
TGI (U251 CNS): > 100 µM

CCOC(=O)C(=O)Nc1ccccc1C
TGI (NCI-H23 lung): > 100 µM
TGI (TK-10 renal): > 100 µM
TGI (SK-MEL-2 melanoma): > 100 µM
TGI (IGROV1 ovarian): > 100 µM
TGI (SN12C renal): > 100 µM
TGI (SK-OV-3 ovarian): > 100 µM
TGI (HOP-92 NSCLC): > 100 µM
TGI (U251 CNS): > 100 µM
